Assay results from US11459339B2, “Biaryl derivative, preparation method thereof and pharmaceutical application thereof” (Abbisko Therapeutics Co., Ltd., priority 2018, dated 2022).

How the values were obtained:
[1] = biological target: interaction between PD-1 and PD-L1 expressed on cell surfaces (Homo sapiens (Human), UniProt Q9NZQ7); experiment: Jurkat reporter gene cellular assay (Jurkat/NF-κB-luc/PD1 cells cocultured with Raji-PD-L1 cells, OKT-3 stimulation); type: cell-based; conditions: NF-κB-luc reporter activation fold, 6 hrs; read-out: Cell Activity EC50
Chain of interaction between PD-1 and PD-L1 expressed on cell surfaces (Q9NZQ7 19-290): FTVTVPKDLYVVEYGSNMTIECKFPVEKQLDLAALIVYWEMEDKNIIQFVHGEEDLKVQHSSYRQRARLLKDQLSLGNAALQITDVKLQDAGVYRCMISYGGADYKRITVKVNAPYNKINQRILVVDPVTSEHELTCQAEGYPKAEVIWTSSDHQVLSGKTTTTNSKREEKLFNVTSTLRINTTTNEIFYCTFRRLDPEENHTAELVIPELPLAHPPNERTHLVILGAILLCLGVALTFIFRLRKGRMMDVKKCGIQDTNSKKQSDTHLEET
Protocol: B. Jurkat Reporter Gene Cellular Assay
The effect of compounds of the examples of the present invention and positive compounds on the interaction between PD-1 and PD-L1 expressed on cell surfaces, and the related influence on T cell functions, were determined by a Jurkat reporter gene cellular assay.
Briefly, the reporter gene plasmid of NF-κB-luc and the plasmid of human PD-1 were transfected into Jurkat cells to establish a stably transfected cell line capable of stably expressing both PD-1 and NF-κB-Luc reporter genes; the expression level of PD-1 on the cell surface was confirmed by flow cytometry: and the expression of the reporter gene was confirmed via the response of the reporter gene stimulated by OKT-3 and Raiji cells.
In addition, the plasmid of human PD-L1 was transfected into Raji cells to obtain a cell line capable of stably expressing PD-L1. Jurkat/NF-κB-luc/PD1 cells and Raji-PD-L1 cells were then cocultured and stimulated with OKT-3. On this basis, the compounds were added, and the enhancement of the signal pathway of T cell activation by the inhibitory effect of the compounds on the interaction between PD-1 and PD-L1 was evaluated by readings of reporter gene responses. The specific experimental process was as follows:
2. 20 μL of Raji-PD-L1 cell suspension was added to each well with 5*10^4 cells for each well, and was incubated in an incubator for 20 min;
3. 20 μL of Jurkat/NF-κb-luc/PD-1 cell suspension was added to each well with 5*10^4 cells for each well, and well mixed, and 6 hrs later, Bright-glo (Promega, E2620) was applied and plates were read on Envision;
4. the reading of each well treated with the compound was compared with the reading of each well treated with DMSO to obtain the activation fold of the compound; and
5. EC50 values of compounds and positive compounds of the examples of the present invention were determined by non-linear regression analysis of activation folds at different compound concentrations.

[2] = biological target: interaction between PD-1 and PD-L1 (Homo sapiens (Human), UniProt Q9NZQ7); experiment: PD1-PDL1 HTRF binding activity test (Cisbio PD-1/PD-L1 binding assay kit); conditions: read-out: PD1-PDL1 HTRF Binding Activity IC50
Chain of interaction between PD-1 and PD-L1 (Q9NZQ7 19-238): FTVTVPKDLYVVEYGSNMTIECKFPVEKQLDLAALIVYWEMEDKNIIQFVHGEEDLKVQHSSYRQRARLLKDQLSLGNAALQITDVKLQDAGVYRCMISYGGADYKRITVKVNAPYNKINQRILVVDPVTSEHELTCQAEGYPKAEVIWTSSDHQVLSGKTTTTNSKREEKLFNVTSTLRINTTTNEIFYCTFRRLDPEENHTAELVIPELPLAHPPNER
Protocol: A. PD1-PDL1 HTRF Binding Activity Test
The effect of compounds and positive compounds of the examples of the present invention on the interaction between PD-1 and PD-L1 was determined by the PD-1/PD-L1 binding assay kit from Cisbio (#64ICP01PEG or 64ICP01PEH). The detailed experimental process was as follows:
1. Pre-diluted compound solution, 4 μL of Tag1-PD-L1 and 4 μL of Tag2-PD1 were added to each well of a 384-well plate;
3. After incubated for 2 hrs at room temperature or overnight at 4° C., plates were read on Envision of Pelkin Elmer; and readings at 665 nm and 620 nm were recorded, and the ratio of the two readings was taken as a reading for each well;
4. The reading of each well after compound treatment was compared with the reading of DMSO treated wells to obtain the percent inhibition of the compound; and
5. IC50 values of compounds and positive compounds of the examples of the present invention were determined by non-linear regression analysis of percent inhibition at different compound concentrations.

EC50 [1] [nM] | IC50 [2] [nM] | Structure (SMILES)
456 | 0.74 | COCCN(C)Cc1cnc(C(=O)Nc2cccc(-c3cccc(NC(=O)c4cc(OC)c(CN(C)CCOC)cn4)c3C)c2C)cc1OC [Example 36, N,N'-(2,2′-dimethyl-[1,1′-biphenyl]-3,3′-diyl)bis(4-methoxy-5-(((2-methoxyethyl)(methyl)amino)methyl)picolinamide)]
118 | 0.04 | COc1cc(C(=O)Nc2cccc(-c3cccc(NC(=O)c4cc(OC)c(CN(C)CCO)cn4)c3C)c2C)ncc1CN(C)CCO [Example 37, N,N'-(2,2′-dimethyl-[1,1′-biphenyl]-3,3′-diyl)bis(5-(((2-hydroxyethyl) (methyl)amino)methyl)-4-methoxypicolinamide)]
7000 | 0.83 | COc1cc(C(=O)Nc2cccc(-c3cccc(NC(=O)c4cc(OC)c(CNCCOC(C)=O)cn4)c3C)c2C)ncc1CNCCOC(C)=O [Example 38, ((((((2,2′-dimethyl-[1,1′-biphenyl]-3,3′-diyl)bis(azanediyl))bis (carbonyl))bis(4-methoxypyridine-6,3-diyl))bis(methylene))bis (azanediyl))bis(ethane-2,1-diyl) diacetate]
225 | 0.86 | COc1cc(C(=O)Nc2cccc(-c3cccc(NC(=O)c4cc(OC)c(CNCCNC(C)=O)cn4)c3C)c2C)ncc1CNCCNC(C)=O [Example 39, N,N′-(2,2′-dimethyl-[1,1′-biphenyl]-3,3′-diyl)bis(5-(((2-acetamidoethyl)amino)methyl)-4-methoxypicolinamide)]
172 | 0.29 | COc1cc(C(=O)Nc2cccc(-c3cccc(NC(=O)c4cc(OC)c(CNCC(C)(C)O)cn4)c3C)c2C)ncc1CNCC(C)(C)O [Example 40, N,N'-(2,2′-dimethyl-[1,1′-biphenyl]-3,3′-diyl)bis(5-(((2-hydroxy-2-methylpropyl)amino)methyl)-4-methoxypicolinamide)]
74 | 0.032 | COc1cc(C(=O)Nc2cccc(-c3cccc(NC(=O)c4cc(OC)c(CNCC5(O)CC5)cn4)c3C)c2C)ncc1CNCC1(O)CC1 [Example 41, N,N'-(2,2′-dimethyl-[1,1′-biphenyl]-3,3′-diyl)bis(5-((((1-hydroxycyclopropyl)methyl)amino)methyl)-4-methoxypicolinamide)]
60 | 0.28 | COc1cc(C(=O)Nc2cccc(-c3cccc(NC(=O)c4cc(OC)c(CN[C@H](C)CO)cn4)c3C)c2C)ncc1CN[C@H](C)CO [Example 42, N,N'-(2,2′-dimethyl-[1,1′-biphenyl]-3,3′-diyl)bis(5-((((R)-1-hydroxypropan-2-yl)amino)methyl)-4-methoxypicolinamide)]
11 | 0.29 | COc1cc(C(=O)Nc2cccc(-c3cccc(NC(=O)c4cc(OC)c(CN[C@@H](C)CO)cn4)c3C)c2C)ncc1CN[C@@H](C)CO [Example 43, N,N'-(2,2′-dimethyl-[1,1′-biphenyl]-3,3′-diyl)bis(5-((((S)-1-hydroxypropan-2-yl)amino)methyl)-4-methoxypicolinamide)]
55 | 0.24 | COc1cc(C(=O)Nc2cccc(-c3cccc(NC(=O)c4cc(OC)c(CN[C@H]5CCC[C@@H]5O)cn4)c3C)c2C)ncc1CN[C@H]1CCC[C@@H]1O [Example 44, N,N'-(2,2′-dimethyl-[1,1′-biphenyl]-3,3′-diyl)bis(5-((((1S,2S)-2-hydroxycyclopentyl)amino)methyl)-4-methoxypicolinamide)]
41 | 0.22 | COc1cc(C(=O)Nc2cccc(-c3cccc(NC(=O)c4cc(OC)c(CN5CC(O)C5)cn4)c3C)c2C)ncc1CN1CC(O)C1 [Example 45, N,N'-(2,2′-dimethyl-[1,1′-biphenyl]-3,3′-diyl)bis(5-((3-hydroxyazetidin-l-yl)methyl)-4-methoxypicolinamide)]
46 | 0.27 | COc1cc(C(=O)Nc2cccc(-c3cccc(NC(=O)c4cc(OC)c(CN5CC[C@@H](O)C5)cn4)c3C)c2C)ncc1CN1CC[C@@H](O)C1 [Example 47, N,N'-(2,2′-dimethyl-[1,1′-biphenyl]-3,3′-diyl)bis(5-(((R)-3-hydroxypyrrolidin-1-yl)methyl)-4-methoxypicolinamide)]
102 | 0.31 | COc1cc(C(=O)Nc2cccc(-c3cccc(NC(=O)c4cc(OC)c(CN5CC[C@H](O)C5)cn4)c3C)c2C)ncc1CN1CC[C@H](O)C1 [Example 48, N,N'-(2,2′-dimethyl-[1,1′-biphenyl]-3,3′-diyl)bis(5-(((S)-3-hydroxypyrrolidin-1-yl)methyl)-4-methoxypicolinamide)]
104 | 0.33 | COc1cc(C(=O)Nc2cccc(-c3cccc(NC(=O)c4cc(OC)c(CN5CCC(O)CC5)cn4)c3C)c2C)ncc1CN1CCC(O)CC1 [Example 49, N,N'-(2,2′-dimethyl-[1,1′-biphenyl]-3,3′-diyl)bis(5-((4-hydroxypiperidin-l-yl)methyl)-4-methoxypicolinamide)]
229 | 0.33 | COc1cc(C(=O)Nc2cccc(-c3cccc(NC(=O)c4cc(OC)c(CN5CC[C@@H](OC)C5)cn4)c3C)c2C)ncc1CN1CC[C@@H](OC)C1 [Example 50, N,N'-(2,2′-dimethyl-[1,1′-biphenyl]-3,3′-diyl)bis(4-methoxy-5-(((R)-3-methoxypyrrolidin-1-yl)methyl)picolinamide)]
288 | 0.22 | COc1cc(C(=O)Nc2cccc(-c3cccc(NC(=O)c4cc(OC)c(CN5CC(OC)C5)cn4)c3C)c2C)ncc1CN1CC(OC)C1 [Example 51, N,N'-(2,2′-dimethyl-[1,1′-biphenyl]-3,3′-diyl)bis(4-methoxy-5-((3-methoxyazetidin-1-yl)methyl)picolinamide)]
508 | 0.4 | COc1cc(C(=O)Nc2cccc(-c3cccc(NC(=O)c4cc(OC)c(CN5CC(C)(OC)C5)cn4)c3C)c2C)ncc1CN1CC(C)(OC)C1 [Example 52, N,N'-(2,2′-dimethyl-[1,1′-biphenyl]-3,3′-diyl)bis(4-methoxy-5-((3-methoxy-3-methylazetidin-1-yl)methyl)picolinamide)]
52 | 0.15 | COc1cc(C(=O)Nc2cccc(-c3cccc(NC(=O)c4cc(OC)c(CN[C@H]5C[C@@H](O)C5)cn4)c3C)c2C)ncc1CN[C@H]1C[C@@H](O)C1 [Example 53, N,N'-(2,2′-dimethyl-[1,1′-biphenyl]-3,3′-diyl)bis(5-((((1s,3s)-3-hydroxycyclobutyl)amino)methyl)-4-methoxypicolinamide)]
4770 | 0.21 | COc1cc(C(=O)Nc2cccc(-c3cccc(NC(=O)c4cc(OC)c(CNC5COC5)cn4)c3C)c2C)ncc1CNC1COC1 [Example 54, N,N'-(2,2′-dimethyl-[1,1′-biphenyl]-3,3′-diyl)bis(4-methoxy-5-((oxetan-3-ylamino)methyl)picolinamide)]
82 | 0.4 | COc1cc(C(=O)Nc2cccc(-c3cccc(NC(=O)c4cc(OC)c(CN[C@H]5CCOC5)cn4)c3C)c2C)ncc1CN[C@H]1CCOC1 [Example 55, N,N'-(2,2′-dimethyl-[1,1′-biphenyl]-3,3′-diyl)bis(4-methoxy-5-((((S)-tetrahydrofuran-3-yl)amino)methyl)picolinamide)]
172 | 0.64 | COc1cc(C(=O)Nc2cccc(-c3cccc(NC(=O)c4cc(OC)c(CN[C@@H]5CCOC5)cn4)c3C)c2C)ncc1CN[C@@H]1CCOC1 [Example 56, N,N'-(2,2′-dimethyl-[1,1′-biphenyl]-3,3′-diyl)bis(4-methoxy-5-((((R)-tetrahydrofuran-3-yl)amino)methyl)picolinamide)]
625 | 0.22 | COc1cc(C(=O)Nc2cccc(-c3cccc(NC(=O)c4cc(OC)c(CN5CC6(COC6)C5)cn4)c3C)c2C)ncc1CN1CC2(COC2)C1 [Example 58, N,N'-(2,2′-dimethyl-[1,1′-biphenyl]-3,3′-diyl)bis(5-((2-oxa-6-azaspiro[3.3]heptan-6-yl)methyl)-4-methoxypicolinamide)]
70 | 0.31 | COc1cc(C(=O)Nc2cccc(-c3cccc(NC(=O)c4cc(OC)c(CNC[C@@H](O)CC(=O)O)cn4)c3C)c2C)ncc1CNC[C@@H](O)CC(=O)O [Example 59]
